Experimental data: patent publication US20070087744A1, “METHOD FOR REDUCING THE TIME DELAY IN A TELEPHONE SYSTEM” (priority 2003, published 2007)
In brackets after ≈: the same amount, converted by molar mass.

Tests used:
Test in all cases: In Vitro Minimum Inhibitory Concentration
Assay type in all cases: cell-based
Acinetobacter baumannii = tested on: Acinetobacter baumannii
Procedure: (§1) Subsequent dilutions had the concentration calculated in ppm. Each concentration was challenged with an equal volume of microbial inoculums. After incubation the lowest concentration showing “No-Growth” was recorded as the Minimum Inhibitory Concentration.

Bacteroides fragilis = tested on: Bacteroides fragilis
Procedure: as §1

Candida albicans = tested on: Candida albicans
Procedure: as §1

Candida parapsilosis = settings: Lodderomyces parapsilosis; clinical isolate 040400Cp2
Procedure: as §1

Candida tropicalis = settings: ATCC750, ATCC 750
Procedure: as §1

Enterobacter aerogenes = settings: Klebsiella aerogenes
Procedure: as §1

Enterococcus faecalis = tested on: Enterococcus faecalis
Procedure: as §1

Enterococcus faecium = tested on: Enterococcus faecium
Procedure: as §1

Escherichia coli = settings: for MIC: Escherichia coli
Procedure: as §1

Haemophilus influenzae = tested on: Haemophilus influenzae
Procedure: as §1

Klebsiella oxytoca = tested on: Klebsiella oxytoca
Procedure: as §1

Klebsiella pneumoniae = tested on: Klebsiella pneumoniae
Procedure: as §1

Micrococcus luteus = settings: ATCC7468, ATCC 7468
Procedure: as §1

CCO [70% ethyl alcohol, ethyl alcohol]
MIC (Acinetobacter baumannii; ATCC19606, ATCC 19606, trypticase soy broth): 4380 µg/mL (≈ 95 mM)
MIC (Acinetobacter baumannii; clinical isolate 061901 Ab1): 8750 µg/mL (≈ 190 mM)
MIC (Bacteroides fragilis; ATCC25285, ATCC 25285): 8750 µg/mL (≈ 190 mM)
MIC (Bacteroides fragilis; clinical isolate 061901Bf2): 8750 µg/mL (≈ 190 mM)
MIC (Candida albicans; ATCC10231, ATCC 10231): 17500 µg/mL (≈ 380 mM)
MIC (Candida albicans; clinical isolate 040400Ca2): 17500 µg/mL (≈ 380 mM)
MIC (Candida parapsilosis): 17500 µg/mL (≈ 380 mM)
MIC (Candida tropicalis): 17500 µg/mL (≈ 380 mM)
MIC (Enterobacter aerogenes; ATCC13048, ATCC 13048): 8750 µg/mL (≈ 190 mM)
MIC (Enterobacter aerogenes; clinical isolate 040400Ea1): 8750 µg/mL (≈ 190 mM)
MIC (Enterococcus faecalis; ATCC29212, ATCC 29212): 8750 µg/mL (≈ 190 mM)
MIC (Enterococcus faecalis; clinical isolate 040400Esp17): 8750 µg/mL (≈ 190 mM)
MIC (Enterococcus faecium; ATCC51559, ATCC 51559): 8750 µg/mL (≈ 190 mM)
MIC (Enterococcus faecium; clinical isolate 061901Efm1): 8750 µg/mL (≈ 190 mM)
MIC (Escherichia coli; ATCC11229, ATCC 11229): 8750 µg/mL (≈ 190 mM)
MIC (Escherichia coli; ATCC25922, ATCC 25922): 8750 µg/mL (≈ 190 mM)
MIC (Escherichia coli; clinical isolate 051599Ec): 8750 µg/mL (≈ 190 mM)
Minimum Inhibitory Concentration (Escherichia coli; clinical isolate 070399Ec): 8750 ppm
MIC (Haemophilus influenzae; ATCC19418, ATCC 19418): 5830 µg/mL (≈ 127 mM)
MIC (Haemophilus influenzae; clinical isolate 121699Hi): 5830 µg/mL (≈ 127 mM)
MIC (Klebsiella oxytoca; ATCC43165, ATCC 43165): 8750 µg/mL (≈ 190 mM)
MIC (Klebsiella oxytoca; clinical isolate 061901Ko1): 8750 µg/mL (≈ 190 mM)
MIC (Klebsiella pneumoniae; ATCC13883, ATCC 13883): 4380 µg/mL (≈ 95 mM)
MIC (Klebsiella pneumoniae; clinical isolate 06190Kpn1): 8750 µg/mL (≈ 190 mM)
MIC (Micrococcus luteus): 8750 µg/mL (≈ 190 mM)
